The values that follow come from patent US7452865B2, “Antagonistic analogs of GH RH (2003)” (The Administrare's of the Tulane Educational Fund, priority 2004, dated 2008).

Where “and” joins values, the source holds several entries; their conditions need not be identical. Equal entries are not always repeated.

For the test, the system named is hGH-RH(1-29)NH2 induced GH release. Nature of the test: Inhibition of GH release in superfused rat pituitary system. It counts as cell-based. The settings on record: for GH response (% of control) 0 min / GH response (% of control) 30 min / GH response (% of control) 60 min / GH response (% of control) 90 min / GH response (% of control) 120 min: antagonist 30 nM; for GH response (% of control) 0 min: 1 nM hGH-RH(1-29)NH2 at 0 min; for GH response (% of control) 30 min: 1 nM hGH-RH(1-29)NH2 at 30 min; for GH response (% of control) 60 min: 1 nM hGH-RH(1-29)NH2 at 60 min; for GH response (% of control) 90 min: 1 nM hGH-RH(1-29)NH2 at 90 min; for GH response (% of control) 120 min: 1 nM hGH-RH(1-29)NH2 at 120 min. The method, then: The analogs were tested in vitro in a test described earlier (S. Vigh and A. V Schally, Peptides 5:241-[…], 1984) with modification (Z. Rekasi and A. V. Schally, P.N.A.S. 90:2146-2149, 1993).
Briefly, the cells are preincubated with peptides for 9 minutes (3 mL) at various concentrations. Immediately after the incubation, 1 nM hGH-RH(1-29)NH2 is administered for 3 minutes (1 mL) 10 minute response). To check the duration of the antagonistic effect of the analogue, 1 nM hGH-RH(1-29)NH2 is applied 30, 60, 90, and 120 minutes later for 3 minutes [30, 60, 90, 120 min responses]. Net integral values of the GH responses are evaluated. GH responses are compared to and expressed as percent of the original GH response induced by 1 nM GH-RH(1-29)NH2 The effect of the new antagonists are compared to that of [Ac-Tyr^1, D-Arg^2]hGH-RH(1-29)NH2, the “Standard antagonist”.
Rat GH levels in aliquots of undiluted and diluted superfusion samples were measured by double-antibody radioimmunoassay using materials supplied by the National Hormone and Pituitary Program, Baltimore, Md. The results of RIA were analyzed with a computer program developed in our institute (V. Csernus and A. V. Schally, in Neuroendocrine Research Methods, Harwood Academic (Greenstein, B. D. ed., London, pp. 71-109, 1991), hereby incorporated by reference.

As for “[Hca-Tyr^1, D-Arg^2, Phe(pCl)^6, Har^9, Tyr(Me)^10, Abu^15, Nle^27, D-Arg^28, Har^29, Agm^30]hGH-RH(1-30) [Peptide 59]”, the “GH response (% of control) 0 min” value was 72 % of control and 61 % of control and 93 % of control and 47 % of control; the “GH response (% of control) 30 min” value is 49 % of control and 50 % of control and 43 % of control and 27 % of control; the “GH response (% of control) 60 min” value is 46 % of control and 48 % of control and 60 % of control and 37 % of control; the “GH response (% of control) 90 min” value is 38 % of control and 47 % of control and 57 % of control and 44 % of control. The “GH response (% of control) 120 min” value is 76 % of control and 47 % of control.
Take “[PhAc-Tyr^1, D-Arg^2, Phe(pCl)^6, Arg^9, Cha^10, Abu^15, Nle^27, D-Arg^28, Har^29]hGH-RH(1-29)NH2 [Peptide 33]”: the “GH response (% of control) 0 min” value was 97 % of control, the “GH response (% of control) 30 min” value is 89 % of control, the “GH response (% of control) 60 min” value was 78 % of control and the “GH response (% of control) 90 min” value is 97 % of control. Besides, the “GH response (% of control) 120 min” value is 82 % of control.
Take “[PhAc-Tyr^1, D-Arg^2, Phe(pCl)^6, Cit^8, Arg^9, Abu^15, Nle^27, Har^28, D-Arg^29]hGH-RH(1-29)NH2 [Peptide 23]”: the “GH response (% of control) 0 min” value is on record as 55 % of control, the “GH response (% of control) 30 min” value is 40 % of control, the “GH response (% of control) 60 min” value is 41 % of control and the “GH response (% of control) 90 min” value is reported as 47 % of control. Further, the “GH response (% of control) 120 min” value is given as 41 % of control.
As for “[PhAc-Tyr^1, D-Arg^2, Phe(pCl)^6, Cit^8, Arg^9, Abu^15, Nle^27, D-Arg^28, Har^29]hGH-RH(1-29)NH2 [Peptide 21]”, the “GH response (% of control) 0 min” value is reported as 0 % of control, the “GH response (% of control) 30 min” value is given as 13 % of control, the “GH response (% of control) 60 min” value is 33 % of control and the “GH response (% of control) 90 min” value is listed as 43 % of control. Besides, the “GH response (% of control) 120 min” value is on record as 37 % of control. For the same substance, the “endocrine antagonistic potency: inhibition of the GH release stimulated by hGH-RH(1-29)NH2 (in words)” value (general statement, in vitro and in vivo) is given as “high endocrine antagonistic potencies”.
Turning to “[PhAc-Tyr^1, D-Arg^2, Phe(pCl)^6, Har^9, Tyr(Me)^10, Abu^15, Nle^27, D-Arg^28, Har^29, Agm^30]hGH-RH(1-30) [Peptide 60]”, the “GH response (% of control) 0 min” value was 73 % of control and 87 % of control; the “GH response (% of control) 30 min” value is 27 % of control and 29 % of control; the “GH response (% of control) 60 min” value is 34 % of control and 65 % of control; the “GH response (% of control) 90 min” value was 56 % of control and 36 % of control. Moreover, the “GH response (% of control) 120 min” value was 42 % of control and 63 % of control.
Consider “[PhAc-D-Arg^0, D-Arg^2, Phe(pCl)^6, Arg^9, Abu^15, Nle^27, D-Arg^28, Har^29]hGH-RH(1-29)NH2 [Peptide 19]”, for which the “GH response (% of control) 0 min” value is 62 % of control, the “GH response (% of control) 30 min” value was 64 % of control, the “GH response (% of control) 60 min” value is 66 % of control and the “GH response (% of control) 90 min” value is 82 % of control. Further, the “GH response (% of control) 120 min” value is reported as 74 % of control.
For “[PhAc-Tyr^1, D-Arg^2, Phe(pCl)^6, Har^9, Tyr(Me)^10, Orn^12, Abu^15, Nle^27, D-Arg^28, Har^29]hGH-RH(1-29)NHEt [Peptide 50]” the same measures were 57 % of control, 65 % of control, 69 % of control, 74 % of control and 67 % of control.
In the case of “[Hca-Tyr^1, D-Arg^2, Phe(pCl)^6, Har, Tyr(Me)^10, Abu^15, Nle^27, D-Arg^28, Har^29, Har^30]hGH-RH(1-30)NH2 [Peptide 53]”, the “GH response (% of control) 0 min” value is 43 % of control, the “GH response (% of control) 30 min” value was 42 % of control, the “GH response (% of control) 60 min” value is listed as 40 % of control and the “GH response (% of control) 90 min” value is given as 36 % of control. Further, the “GH response (% of control) 120 min” value is 46 % of control.
“[PhAc-Tyr^1, D-Arg^2, Phe(pCl)^6, Har^9, Tyr(Me)^10, Amp^11, Abu^15, Nle^27, D-Arg^28, Har^29]hGH-RH(1-29)NH2 [Peptide 64]”: the “GH response (% of control) 0 min” value is listed as 59 % of control, the “GH response (% of control) 30 min” value was 54 % of control, the “GH response (% of control) 60 min” value is given as 70 % of control and the “GH response (% of control) 90 min” value was 50 % of control. Also, the “GH response (% of control) 120 min” value is given as 56 % of control.
Take “[Hca-Tyr^1, D-Arg^2, Phe(pCl)^6, Har^9, Tyr(Me)^10, Abu^15, Nle^27, D-Arg^28, Har^29, Har^30]hGH-RH(1-30)NHEt [Peptide 56]”: the “GH response (% of control) 0 min” value is 76 % of control, the “GH response (% of control) 30 min” value was 83 % of control, the “GH response (% of control) 60 min” value is listed as 92 % of control and the “GH response (% of control) 90 min” value is listed as 80 % of control. Further, the “GH response (% of control) 120 min” value is reported as 68 % of control.
As for “[PhAc-Tyr^1, D-Arg^2, Phe(pCl)^6, Arg^9, His^10, Abu^15, Nle^27, D-Arg^28, Har^29]hGH-RH(1-29)NH2 [Peptide 32]”, the “GH response (% of control) 0 min” value is 28 % of control, the “GH response (% of control) 30 min” value is listed as 43 % of control, the “GH response (% of control) 60 min” value is 69 % of control and the “GH response (% of control) 90 min” value was 76 % of control.
As for “[PhAc-Tyr^1, D-Arg^2, Phe(pCl)^6, Cit^8, Cit^9, Abu^15, Nle^27, Har^28, D-Arg^29]hGH-RH(1-29)NH2 [Peptide 24]”, the “GH response (% of control) 0 min” value is reported as 56 % of control, the “GH response (% of control) 30 min” value is on record as 13 % of control, the “GH response (% of control) 60 min” value is reported as 18 % of control and the “GH response (% of control) 90 min” value is reported as 34 % of control. The “GH response (% of control) 120 min” value was 60 % of control.
For “[PhAc-Tyr^1, D-Arg^2, Phe(pCl)^6, Arg^9, Abu^15, Nle^27, D-Arg^28, Har^29]hGH-RH(1-29)NHEt [Peptide 48]” the same measures were 22 % of control, 21 % of control, 44 % of control, 44 % of control and 47 % of control.
As for “[PhAc-Tyr^1, D-Arg^2, Phe(pCl)^6, Har^9, 3-Pal^10, Abu^15, Nle^27, D-Arg^28, Har^29]hGH-RH(1-29)NH2 [Peptide 40]”, the “GH response (% of control) 0 min” value was 42 % of control, the “GH response (% of control) 30 min” value is 29 % of control, the “GH response (% of control) 60 min” value is listed as 26 % of control and the “GH response (% of control) 90 min” value was 36 % of control. The “GH response (% of control) 120 min” value is on record as 30 % of control.
Taken in the same sequence, the figures for “[PhAc-Tyr^1, D-Arg^2, Phe(pCl)^6, D-Ala^8, Arg^9, Abu^15, Nle^27, D-Arg^28, Har^29]hGH-RH(1-29)NH2 [Peptide 26]” were 20 % of control, 43 % of control, 66 % of control, 48 % of control and 44 % of control.
For the substance “[CH3(CH2)4CO-Tyr^1, D-Arg^2, Phe(pCl)^6, Arg^9, Abu^15, Nle^27, D-Arg^28, Har^29]hGH-RH(1-29)NH2 [Peptide 2]”, the “GH response (% of control) 0 min” value is reported as 18 % of control, the “GH response (% of control) 30 min” value was 13 % of control, the “GH response (% of control) 60 min” value was 18 % of control and the “GH response (% of control) 90 min” value is listed as 25 % of control. The “GH response (% of control) 120 min” value is reported as 51 % of control.
As to “[PhAc-Tyr^1, D-Arg^2, Phe(pCl)^6, Abu^8, Arg^9, Abu^15, Nle^27, D-Arg^28, Har^29]hGH-RH(1-29)NH2 [Peptide 27]”, the “GH response (% of control) 0 min” value is recorded as 19 % of control, the “GH response (% of control) 30 min” value is on record as 15 % of control, the “GH response (% of control) 60 min” value is reported as 23 % of control and the “GH response (% of control) 90 min” value is recorded as 23 % of control. Further, the “GH response (% of control) 120 min” value was 61 % of control.
On to “[PhAc-Arg^0, D-Arg^2, Phe(pCl)^6, Arg^9, Abu^15, Nle^27, D-Arg^28, Har^29]hGH-RH(1-29)NH2 [Peptide 18]”, for which the “GH response (% of control) 0 min” value is 21 % of control, the “GH response (% of control) 30 min” value is recorded as 71 % of control, the “GH response (% of control) 60 min” value is 61 % of control and the “GH response (% of control) 90 min” value was 75 % of control. The “GH response (% of control) 120 min” value is 63 % of control.
